Like-named read-outs stand apart in the source and are kept apart here.
Tested on: M. furfur
Text: The time-kill assays are used to evaluate efficacy of antimicrobial agents, either singly or in combination, and the results can help in establishing the dose and/or time of application of the active. The time-kill assays can be used to study both concentration-dependent and time-dependent antimicrobial action.
Method: M. furfur cells were suspended in Sabouraud Dextrose Broth (SDB) at inoculum concentration of 7×10^7 cells/ml. Cells were taken from a freshly growing (3-7 days old) plate and cell suspension is vortexed to remove the cell clumps as much as possible. Sterile media were supplemented with chloramphenicol (0.25 mg/ml), cycloheximide (0.04 mg/ml) and olive oil (2%). The media were then supplemented with appropriate concentrations (two-fold serial dilutions using SDB) of zinc pyrithione powder (10 μg/ml and 50 μg/ml) with different concentrations of Capmul 908-P […]. The cultures were incubated on a tube rotator at 34° C. in CO2 incubator.
To measure the colony forming units (CFU), at different time points, aliquots (50 μl) of Malassezia cultures were serially diluted with SDBT medium (SDB containing 0.1% Triton X-100) and plated on SDA plates. The plates were incubated at 34° C. in CO2 incubator for 3 days. The viable colonies were counted and converted to CFU/ml.

zinc pyrithione [ZPT]
Log CFU Count of M. furfur (ZPT 10 μg/ml, Capmul 908-P 30 μg/ml, 6 hrs): 6.50 Log CFU
Log CFU Count of M. furfur (ZPT 10 μg/ml, Capmul 908-P 30 μg/ml, 24 hrs): 5.94 Log CFU
Log CFU Count of M. furfur (ZPT 10 μg/ml, Capmul 908-P 30 μg/ml, 48 hrs): 5.06 Log CFU
Log CFU Count of M. furfur (ZPT 10 μg/ml, Capmul 908-P 50 μg/ml, 6 hrs): 6.37 Log CFU
Log CFU Count of M. furfur (ZPT 10 μg/ml, Capmul 908-P 50 μg/ml, 24 hrs): 5.57 Log CFU
Log CFU Count of M. furfur (ZPT 10 μg/ml, Capmul 908-P 50 μg/ml, 48 hrs): 4.80 Log CFU
Log CFU Count of M. furfur (ZPT 10 μg/ml, Capmul 908-P 90 μg/ml, 6 hrs): 6.33 Log CFU
Log CFU Count of M. furfur (ZPT 10 μg/ml, Capmul 908-P 90 μg/ml, 24 hrs): 5.55 Log CFU
Log CFU Count of M. furfur (ZPT 10 μg/ml, Capmul 908-P 90 μg/ml, 48 hrs): 4.77 Log CFU
Log CFU Count of M. furfur (ZPT 10 μg/ml, Capmul 908-P nil, 6 hrs): 6.56 Log CFU
Log CFU Count of M. furfur (ZPT 10 μg/ml, Capmul 908-P nil, 24 hrs): 6.13 Log CFU
Log CFU Count of M. furfur (ZPT 10 μg/ml, Capmul 908-P nil, 48 hrs): 5.27 Log CFU
Log CFU Count of M. furfur (ZPT 50 μg/ml, Capmul 908-P 30 μg/ml, 6 h): 6.06 Log CFU
Log CFU Count of M. furfur (ZPT 50 μg/ml, Capmul 908-P 30 μg/ml, 24 h): 4.69 Log CFU
Log CFU Count of M. furfur (ZPT 50 μg/ml, Capmul 908-P 30 μg/ml, 48 h): 3.25 Log CFU
Log CFU Count of M. furfur (ZPT 50 μg/ml, Capmul 908-P 50 μg/ml, 6 h): 5.94 Log CFU
Log CFU Count of M. furfur (ZPT 50 μg/ml, Capmul 908-P 50 μg/ml, 24 h): 4.62 Log CFU
Log CFU Count of M. furfur (ZPT 50 μg/ml, Capmul 908-P 50 μg/ml, 48 h): 3.04 Log CFU
Log CFU Count of M. furfur (ZPT 50 μg/ml, Capmul 908-P 90 μg/ml, 6 h): 5.52 Log CFU
Log CFU Count of M. furfur (ZPT 50 μg/ml, Capmul 908-P 90 μg/ml, 24 h): 3.63 Log CFU
Log CFU Count of M. furfur (ZPT 50 μg/ml, Capmul 908-P 90 μg/ml, 48 h): 2.08 Log CFU
Log CFU Count of M. furfur (ZPT 50 μg/ml, Capmul 908-P nil, 6 h): 6.43 Log CFU
Log CFU Count of M. furfur (ZPT 50 μg/ml, Capmul 908-P nil, 24 h): 5.39 Log CFU
Log CFU Count of M. furfur (ZPT 50 μg/ml, Capmul 908-P nil, 48 h): 3.92 Log CFU
anti-microbial activity towards M. furfur in combination with propylene glycol monocaprylate (time-kill, ZPT 10 and 50 μg/ml with Capmul 908-P): potentiated with increasing concentration of propylene glycol monocaprylate
